Reference: patent US6162459A, “Acyclovir transdermal delivery system” (priority 1997, dated 2000)
“Also recorded” adds a separate entry of the source.

How the values were obtained:
Cytomegalovirus(CMV) = settings: cited from earlier work
[1] = system: Varicella Zoster virus(VZV); settings: cited from earlier work
HSV 2 = settings: cited from earlier work
HSV = settings: in vivo studies; cited from earlier work
HSV 1 [2] = settings: cited from earlier work
HSV 1 [3] = settings: cited from earlier work; remark: listed apart in the source
Epstein Barr virus(EBV) = settings: cited from earlier work
[4] = used locally; cited from earlier work
[5] = in vivo; cited from earlier work
[6] = in vitro; cited from earlier work
[7] = type: physicochemical
Excerpt: Since drugs are said to pass the skin through either polar pathways or norpolar pathways, it is instructive to examine the solubility parameters and lipophilic indices of such enhancers, the latter being calculated from the defermination of their k' values in the mobile phase of varying methanol concentrations of the HPLC method used.

Nc1nc2c(ncn2COCCO)c(=O)[nH]1 [ACV, 9-[(2-Hydroxyethoxy)methyl]-guanine]
activity against CMV (Cytomegalovirus(CMV)): active | effectiveness against CMV, comparison (Cytomegalovirus(CMV); compared with DHPG, Idoxuridine, Trifluridine, or Ara-A, in some case): less effective against CMV as compared with DHPG, Idoxuridine, Trifluridine, orAra-A | activity against VZV [1]: active | activity against HSV 2 (HSV 2): active | in vivo rating to treat HSV, comparison (HSV): better than FIAC(D17) and DHPG(D2); also recorded: better than bromovinyldeoxy uridine(D16) being effective against both HSV 1 and HSV 2 | activity against HSV 1 (HSV 1 [2]): active; also recorded: especially HSV 1 | drug concentration in the skin, local vs oral (HSV 1 [3]; local application vs given orally): 2-3 times lower | effect in the treatment of HSV 1, oral vs local (HSV 1 [3]; oral administration vs local application): better with oral administration than with local application | activity against EBV (Epstein Barr virus(EBV)): active against EBV, but only during the productive cycle

O=c1[nH]c(=O)n([C@H]2C[C@H](O)[C@@H](CO)O2)cc1I [IDU]
toxicity [4]: relatively low toxicities

CC1(C)[C@@H](O[C@H]2O[C@H](C(=O)O)[C@@H](O)[C@H](O)[C@H]2O[C@@H]2O[C@H](C(=O)O)[C@@H](O)[C@H](O)[C@H]2O)CC[C@]2(C)[C@H]3C(=O)C=C4[C@@H]5C[C@@](C)(C(=O)O)CC[C@]5(C)CC[C@@]4(C)[C@]3(C)CC[C@@H]12 [glycyrrhizin]
effect against paw swelling [5]: effective against paw swelling | anti-inflammatory property [6]: anti-inflammatory property

CC1(C)CC[C@]2(C(=O)O)CC[C@]3(C)C(=CC[C@@H]4[C@@]5(C)CC[C@H](O)C(C)(C)[C@@H]5CC[C@]43C)[C@@H]2C1 [oleanolic acid]
polarity [7]: opposite polarities
